For assay [1], the system named is asymmetric di-methyl PABP1 in RKO cells. The assay can be described thus: RKO methylation assay: In Cell Western (ICW) for asymmetric di-methyl PABP1 (PABP1me2a). The note with it: Cellular-based (PABP1me2a) ICW (In Cell Western) assay. In a few lines: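 In-cell western on compound-exposed RKO cells (48 hours): asymmetric di-methyl PABP1 detected by antibody at 800 nm, DNA content by DRAQ5 at 700 nm. Percent inhibition from signal ratios against DMSO (minimum) and 20 μM reference compound (maximum) wells; IC50 curves fitted from triplicates.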

A further assay has as its target T1, Human CARM1 (PRMT4) (Homo sapiens, UniProt Q86X55).
T1 construct: Flag-CARM1-His was eluted with 200 ug/ml FLAG peptide in buffer A; made in house; host or cells: HEK 293F cells infected with recombinant baculovirus (pFastBacMam)
T1 sequence (Q86X55 1-585 isoform Q86X55-1): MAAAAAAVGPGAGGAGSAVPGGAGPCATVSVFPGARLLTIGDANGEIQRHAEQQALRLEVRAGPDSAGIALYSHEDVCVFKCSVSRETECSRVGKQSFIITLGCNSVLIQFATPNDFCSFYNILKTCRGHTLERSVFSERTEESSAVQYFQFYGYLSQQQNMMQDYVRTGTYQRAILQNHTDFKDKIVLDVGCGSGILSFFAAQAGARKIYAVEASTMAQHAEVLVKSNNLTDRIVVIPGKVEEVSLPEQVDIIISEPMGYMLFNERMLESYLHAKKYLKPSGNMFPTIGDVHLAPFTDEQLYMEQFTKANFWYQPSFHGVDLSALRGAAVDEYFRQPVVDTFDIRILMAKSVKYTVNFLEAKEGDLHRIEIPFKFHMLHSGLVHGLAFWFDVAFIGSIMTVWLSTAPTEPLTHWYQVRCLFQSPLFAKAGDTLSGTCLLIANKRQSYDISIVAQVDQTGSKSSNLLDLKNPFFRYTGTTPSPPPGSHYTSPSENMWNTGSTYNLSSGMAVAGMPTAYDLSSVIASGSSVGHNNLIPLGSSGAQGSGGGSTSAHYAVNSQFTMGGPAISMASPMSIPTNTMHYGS
Put plainly: CARM1 enzyme assay on peptide substrates (3H-SAM Flashplate). The note with it: Biochemical assay; CARM1 0.25 nM, 3H-SAM 30 nM, peptide 250 nM; read-out: Biochem IC50.

Some results are limits rather than exact numbers.

A word on the IC50: it is the concentration at which inhibition is half-maximal.

Turning to `CNC[C@@H](O)COc1ccc(Cl)c(-c2nc(-c3c(C)noc3C)c(C)c(N3CC4(CCCN(CC(F)(F)F)C4)C3)n2)c1` [Example 301], the IC50 in assay [1] (Homo sapiens, RKO, 48 h) was determined as 125 nM; at Human CARM1 (PRMT4), 7.99 nM.

Take `CNC[C@@H](O)COc1ccc(Cl)c(-c2nc(-c3c(C)noc3C)c(C)c(N3CC4(CCCN(C(=O)OCC(F)F)C4)C3)n2)c1` [Example 302]: the IC50 in assay [1] (Homo sapiens, RKO, 48 h) came out at 70.2 nM; at Human CARM1 (PRMT4) it was 5.18 nM.

Turning to `CNC[C@@H](O)COc1ccc(Cl)c(-c2nc(-c3c(C)c(Br)nn3C)c(C)c(N3CC4(CC(OCC(F)F)C4)C3)n2)c1` [Example 303], the half-inhibitory concentration (IC50) in assay [1] (Homo sapiens, RKO, 48 h) is 37.6 nM; on Human CARM1 (PRMT4), 5.91 nM.

For `CNC[C@@H](O)COc1ccc(Cl)c(-c2nc(-c3c(C)c(Br)nn3C)c(C)c(N3CC(CCl)(CNCC(F)(F)F)C3)n2)c1` [Example 304], the IC50 in assay [1] (Homo sapiens, RKO, 48 h) was 142 nM; at Human CARM1 (PRMT4), 6.81 nM.

In the case of `CNC[C@@H](O)COc1ccc(Cl)c(-c2nc(-c3c(C)c(Br)nn3C)c(C)c(N3CC4(CN(CC(F)(F)F)C4)C3)n2)c1` [Example 305], the half-maximal inhibitory concentration (IC50) in assay [1] (48 hours) was found to be 27.7 nM; on Human CARM1 (PRMT4), 8.35 nM.

Take `CNC[C@@H](O)COc1ccc(Cl)c(-c2nc(-c3c(C)noc3C)c(C)c(N3CC4(CC(C#N)C4)C3)n2)c1` [Example 306]: the IC50 was 173 nM in assay [1] (Homo sapiens, RKO, 48 h) and 6.52 nM at Human CARM1 (PRMT4).

`CCOc1ncc2c(n1)CN(c1nc(-c3cc(OC[C@H](O)CNC)ccc3Cl)nc(-c3c(Cl)cnn3C)c1C)C2` [Example 307]: the concentration for half-maximal inhibition (IC50) stood at 45.4 nM in assay [1] (Homo sapiens, RKO, 48 h) and 3.86 nM at Human CARM1 (PRMT4).

On to `Cc1noc(C)c1-c1nc(-c2cc(OC[C@H](O)CN(C)C=O)ccc2Cl)nc(N2Cc3cccnc3C2)c1C` [Example 308], for which the IC50 in assay [1] (Homo sapiens, RKO, 48 h) worked out at 1820 nM; at Human CARM1 (PRMT4), 120 nM.

`CNC[C@@H](O)COc1ccc(Cl)c(-c2nc(-c3c(C)noc3C)c(C)c(N3CC4(C3)CN([C@H](C)C(F)(F)F)C4)n2)c1` [Example 330]: the IC50 in assay [1] (Homo sapiens, RKO, 48 h) worked out at 40.9 nM; at Human CARM1 (PRMT4) it was 4.83 nM.

Regarding `CNC[C@@H](O)COc1ccc(Cl)c(-c2nc(-c3c(C)noc3C)c(C)c(N3CC4(C3)CN([C@@H](C)C(F)(F)F)C4)n2)c1` [Example 331], the IC50 in assay [1] (Homo sapiens, RKO, 48 h) stood at 32.9 nM; at Human CARM1 (PRMT4), 6.31 nM.

Turning to `CNC[C@@H](O)COc1ccc(Cl)c(-c2nc(-c3c(C)c(Cl)nn3C)c(C)c(N3CC4(CC(C#N)C4)C3)n2)c1` [Example 332], the half-maximal inhibitory concentration (IC50) in assay [1] (Homo sapiens, RKO, 48 h) was determined as 80.9 nM; at Human CARM1 (PRMT4) it was 4.1 nM.

For the molecule `CNC[C@@H](O)COc1ccc(Cl)c(-c2nc(-c3c(C)c(Br)nn3C)c(C)c(N3CC4(CC(C#N)C4)C3)n2)c1` [Example 333], the IC50 in assay [1] (Homo sapiens, RKO, 48 h) was found to be 64.4 nM; at Human CARM1 (PRMT4), 2.46 nM.

For `CNC[C@@H](O)COc1ccc(Cl)c(-c2nc(-c3c(Cl)cnn3C)c(C)c(N3CC4=C(CN(C(=O)OC)CC4)C3)n2)c1` [Example 334], the IC50 turned out to be 43.4 nM in assay [1] (Homo sapiens, RKO, 48 h) and 2.53 nM at Human CARM1 (PRMT4).

Consider `CNC[C@@H](O)COc1ccc(Cl)c(-c2nc(-c3c(Cl)cnn3C)c(C)c(N3CC4=C(CN(C(=O)OC)C4)C3)n2)c1` [Example 335], for which the IC50 in assay [1] (Homo sapiens, RKO, 48 h) turned out to be 30.5 nM; at Human CARM1 (PRMT4), 2.28 nM.

As to `CNC[C@@H](O)COc1ccc(Cl)c(-c2nc(-c3c(Br)cnn3C)c(C)c(N3CC4=C(CN(C(=O)OC)C4)C3)n2)c1` [Example 336], the 50% inhibitory concentration (IC50) was determined as 32.1 nM in assay [1] (Homo sapiens, RKO, 48 h) and 3.03 nM at Human CARM1 (PRMT4).

On to `CNC[C@@H](O)COc1ccc(Cl)c(-c2nc(-c3c(C)noc3C)c(C)c(N3CC4(CCCN(CC(F)F)C4)C3)n2)c1` [Example 337], for which the IC50 in assay [1] (Homo sapiens, RKO, 48 h) was 60 nM; at Human CARM1 (PRMT4), 4.98 nM.

For the molecule `CNC[C@@H](O)COc1ccc(Cl)c(-c2nc(-c3c(C)noc3C)c(C)c(N3CC4(CCN(C(=O)OC)CC4)C3)n2)c1Cl` [Example 338], the IC50 is 1820 nM in assay [1] (Homo sapiens, RKO, 48 h) and 31.1 nM on Human CARM1 (PRMT4).

As to `CNC[C@@H](O)COc1ccc(Cl)c(-c2nc(-c3c(Cl)cnn3C)c(C)c(N3Cc4cnc(OC)nc4C3)n2)c1` [Example 339], the half-maximal inhibitory concentration (IC50) in assay [1] (Homo sapiens, RKO, 48 h) turned out to be 65.4 nM; on Human CARM1 (PRMT4), 2.54 nM.

On to `CNC[C@@H](O)COc1ccc(Cl)c(-c2nc(-c3c(Cl)cnn3C)c(C)c(N3Cc4cnc(N5CCC5)nc4C3)n2)c1` [Example 340], for which the IC50 in assay [1] (Homo sapiens, RKO, 48 h) was 17.5 nM; at Human CARM1 (PRMT4), 2 nM.

In the case of `CNC[C@@H](O)COc1ccc(Cl)c(-c2nc(-c3c(Cl)cnn3C)c(C)c(N3Cc4nccnc4C3)n2)c1` [Example 341], the IC50 stood at 184 nM in assay [1] (Homo sapiens, RKO, 48 h) and 2.7 nM at Human CARM1 (PRMT4).

As for `CNC[C@@H](O)COc1ccc(Cl)c(-c2nc(-c3c(Cl)cnn3C)c(C)c(N3Cc4cnn(C)c4C3)n2)c1` [Example 342], the IC50 was 123 nM in assay [1] (Homo sapiens, RKO, 48 h) and 2.74 nM at Human CARM1 (PRMT4).

For `CNC[C@@H](O)COc1ccc(Cl)c(-c2nc(-c3c(Cl)cnn3C)c(C)c(N3Cc4cncnc4C3)n2)c1` [Example 344], the IC50 in assay [1] (Homo sapiens, RKO, 48 h) worked out at 713 nM; at Human CARM1 (PRMT4) it was 12.8 nM.

Turning to `CNC[C@@H](O)COc1ccc(Cl)c(-c2nc(-c3c(C)c(C#N)nn3C)c(C)c(N3CC4(CCN(C(=O)OC)CC4)C3)n2)c1` [Example 345], the 50% inhibitory concentration (IC50) in assay [1] (Homo sapiens, RKO, 48 h) is 262 nM; at Human CARM1 (PRMT4) it was 5.66 nM.

In the case of `CNC[C@@H](O)COc1ccc(Cl)c(-c2nc(-c3c(C)c(C#N)nn3C)c(C)c(N3Cc4cncnc4C3)n2)c1` [Example 346], the IC50 in assay [1] (Homo sapiens, RKO, 48 h) is 140 nM; on Human CARM1 (PRMT4) it was 2.31 nM.

In the case of `CNC[C@@H](O)COc1cccc(-c2nc(-c3c(C#N)cnn3C)c(C)c(N3Cc4cccnc4C3)n2)c1` [Example 347], the half-inhibitory concentration (IC50) in assay [1] (Homo sapiens, RKO, 48 h) was over 2000 nM; at Human CARM1 (PRMT4) it was 28.2 nM.

Regarding `CNC[C@@H](O)COc1ccc(Cl)c(-c2nc(-c3c(C#N)cnn3C)c(C)c(N3Cc4cccnc4C3)n2)c1` [Example 348], the IC50 in assay [1] (Homo sapiens, RKO, 48 h) was determined as 1670 nM; at Human CARM1 (PRMT4), 5.67 nM.

Regarding `CNC[C@@H](O)COc1ccc(Cl)c(-c2nc(-c3c(C#N)cnn3C)c(C)c(N3Cc4cncnc4C3)n2)c1` [Example 349], the IC50 in assay [1] (Homo sapiens, RKO, 48 h) amounted to 3110 nM; on Human CARM1 (PRMT4) it was 7.81 nM.

As for `CNC[C@@H](O)COc1cccc(-c2nc(-c3c(C)noc3C)c(C)c(N3CC4(CCN(C(=O)OC)CC4)C3)n2)c1Cl` [Example 350], the concentration for half-maximal inhibition (IC50) in assay [1] (Homo sapiens, RKO, 48 h) amounted to 7200 nM; at Human CARM1 (PRMT4) it was 37.2 nM.
